Laboratory results: ChEMBL document CHEMBL4118257, “Discovery of 2-(3,5-difluoro-4-methylsulfonaminophenyl)propanamides as potent TRPV1 antagonists” (Bioorg Med Chem Lett, 2018)
pIC50, pKi: −log10 of the molar value.

Tests used:
[1] = molecular target: T1, Transient receptor potential cation channel subfamily V member 1 (Homo sapiens, UniProt Q8NER1); experiment: Antagonist activity at recombinant human TRPV1 expressed in CHOK1 cells assessed as reduction in capsaicin-induced Ca2+ flux after 15 mins by fluo-4-based FLIPR assay; format: cell-based; conditions: for pKi: read-out: Ki
T1 sequence (Q8NER1 whole entry): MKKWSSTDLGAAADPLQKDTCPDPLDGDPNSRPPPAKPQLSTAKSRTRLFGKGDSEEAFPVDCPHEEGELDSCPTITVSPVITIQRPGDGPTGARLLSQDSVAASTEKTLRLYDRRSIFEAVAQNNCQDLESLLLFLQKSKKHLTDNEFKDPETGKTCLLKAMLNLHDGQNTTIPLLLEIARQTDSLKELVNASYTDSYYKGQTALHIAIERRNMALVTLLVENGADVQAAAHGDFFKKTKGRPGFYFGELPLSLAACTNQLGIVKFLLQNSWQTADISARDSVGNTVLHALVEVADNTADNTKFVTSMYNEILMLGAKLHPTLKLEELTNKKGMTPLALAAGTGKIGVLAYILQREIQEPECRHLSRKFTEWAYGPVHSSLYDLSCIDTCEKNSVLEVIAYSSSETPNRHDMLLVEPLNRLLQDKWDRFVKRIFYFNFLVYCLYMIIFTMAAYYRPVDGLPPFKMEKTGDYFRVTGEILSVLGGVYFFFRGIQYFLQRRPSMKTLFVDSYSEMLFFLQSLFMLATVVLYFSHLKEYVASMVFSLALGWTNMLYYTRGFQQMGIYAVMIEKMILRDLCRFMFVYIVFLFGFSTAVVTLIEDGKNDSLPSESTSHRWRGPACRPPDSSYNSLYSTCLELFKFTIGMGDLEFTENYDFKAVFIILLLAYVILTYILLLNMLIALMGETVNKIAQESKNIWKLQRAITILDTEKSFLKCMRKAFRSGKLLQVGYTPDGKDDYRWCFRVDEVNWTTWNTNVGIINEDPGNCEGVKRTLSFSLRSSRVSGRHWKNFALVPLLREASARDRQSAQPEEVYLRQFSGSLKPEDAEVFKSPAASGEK

[2] = molecular target: T1, Transient receptor potential cation channel subfamily V member 1; experiment: Antagonist activity at recombinant human TRPV1 expressed in CHOK1 cells assessed as reduction in low pH-induced Ca2+ flux after 15 mins by fluo-4-based FLIPR assay; format: cell-based
Mus musculus [3] = experiment: Toxicity in formalin-induced pain mouse model assessed as hyperthermia at 10 mg/kg, po; format: organism-based; conditions: in vivo
[4] = molecular target: Transient receptor potential cation channel subfamily V member 1 (Rattus norvegicus, UniProt O35433); experiment: Antagonist activity at recombinant rat TRPV1 expressed in HEK293 cells assessed as reduction in capsaicin-induced Ca2+ flux preincubated for 3 mins followed by capsaicin addition measured by calcium 4-dye based FLIPR assay; format: cell-based
Sequence of Transient receptor potential cation channel subfamily V member 1 (Rattus norvegicus, UniProt O35433) (O35433 whole entry): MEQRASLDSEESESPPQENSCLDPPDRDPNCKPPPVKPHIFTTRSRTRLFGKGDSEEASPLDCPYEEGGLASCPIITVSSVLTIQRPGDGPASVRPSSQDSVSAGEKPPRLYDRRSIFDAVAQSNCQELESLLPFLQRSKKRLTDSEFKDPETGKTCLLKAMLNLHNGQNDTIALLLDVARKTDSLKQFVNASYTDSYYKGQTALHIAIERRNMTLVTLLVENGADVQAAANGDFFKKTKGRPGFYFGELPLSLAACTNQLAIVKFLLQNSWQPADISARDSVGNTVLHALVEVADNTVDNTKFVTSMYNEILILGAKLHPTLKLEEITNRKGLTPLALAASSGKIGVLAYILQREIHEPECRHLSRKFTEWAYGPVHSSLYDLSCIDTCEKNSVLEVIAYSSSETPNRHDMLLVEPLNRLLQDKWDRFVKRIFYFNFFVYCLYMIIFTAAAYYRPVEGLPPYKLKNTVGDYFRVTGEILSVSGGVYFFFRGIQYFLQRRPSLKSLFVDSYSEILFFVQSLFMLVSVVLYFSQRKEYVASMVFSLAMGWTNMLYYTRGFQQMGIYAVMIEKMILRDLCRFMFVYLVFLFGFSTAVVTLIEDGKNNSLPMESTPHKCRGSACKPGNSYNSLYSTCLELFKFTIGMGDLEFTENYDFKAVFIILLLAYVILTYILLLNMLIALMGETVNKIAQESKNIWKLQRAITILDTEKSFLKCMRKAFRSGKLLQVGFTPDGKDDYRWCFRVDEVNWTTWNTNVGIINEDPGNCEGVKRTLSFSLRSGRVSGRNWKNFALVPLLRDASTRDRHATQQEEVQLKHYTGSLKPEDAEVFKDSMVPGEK

Rattus norvegicus [5] = experiment: In vivo antagonist activity at TRPV1 in rat assessed as reduction in capsaicin-induced hypothermia at 3 mg/kg, po relative to control; format: functional
Rattus norvegicus [6] = experiment: In vivo antagonist activity at TRPV1 in rat assessed as reduction in capsaicin-induced hypothermia at 10 mg/kg, po relative to control; format: functional
[7] = molecular target: T1, Transient receptor potential cation channel subfamily V member 1; experiment: Antagonist activity at recombinant human TRPV1 expressed in CHOK1 cells assessed as reduction in temperature-induced Ca2+ flux after 15 mins at 45 degC by fluo-4-based FLIPR assay; format: cell-based
Mus musculus [8] = experiment: Analgesic activity in formalin-induced pain mouse model assessed reduction in pain response at 3 mg/kg, iv measured at 20 to 30 mins post administration by formalin test relative to control; format: functional

| pKi [1] | SMILES | other results |
| --- | --- | --- |
| 8.62 | C=CC(=O)N(c1ccc(C(C)C(=O)NCc2ccc(C(F)(F)F)nc2N2CCC(C)CC2)cc1F)S(C)(=O)=O (stereo not drawn) |  |
|  | CC1CCN(c2nc(C(F)(F)F)ccc2CNC(=O)C(C)c2ccc(N(CC#N)S(C)(=O)=O)c(F)c2)CC1 (stereo not drawn) | Ki [1]: Not Active |
| 9.70 | CC1CCN(c2nc(C(F)(F)F)ccc2CNC(=O)C(C)c2cc(F)c(NS(C)(=O)=O)c(F)c2)CC1 (stereo not drawn) | pIC50 [2]: 8.06; Activity (Mus musculus [3]): Toxic; pKi [4]: 10.00; inhibition in vivo at 3 mg/kg (Rattus norvegicus [5]): 57%; inhibition in vivo at 10 mg/kg (Rattus norvegicus [6]): 100%; pIC50 [7]: 8.09; inhibition in vivo at 3 mg/kg (Mus musculus [8]): 43% |
| 8.57 | CC1CCN(c2nc(C(F)(F)F)ccc2CNC(=O)C(C)c2ccc(NS(N)(=O)=O)c(F)c2)CC1 (stereo not drawn) |  |
| 8.49 | CC1CCN(c2nc(C(F)(F)F)ccc2CNC(=O)C(C)c2ccc(NS(C)(=O)=O)c(Br)c2)CC1 (stereo not drawn) |  |
| 9.10 | COc1cc(C(C)C(=O)NCc2ccc(C(F)(F)F)nc2N2CCC(C)CC2)ccc1NS(C)(=O)=O (stereo not drawn) |  |
|  | CC1CCN(c2nc(C(F)(F)F)ccc2CNC(=O)C(C)c2ccc(NS(=O)(=O)C(F)(F)F)c(F)c2)CC1 (stereo not drawn) | Ki [1]: Not Active |
| 8.64 | CC1CCN(c2nc(C(F)(F)F)ccc2CNC(=O)C(C)c2ccc(NS(C)(=O)=O)c(Cl)c2)CC1 (stereo not drawn) |  |
| 8.80 | COc1cc(C(C)C(=O)NCc2ccc(C(F)(F)F)nc2N2CCC(C)CC2)cc(OC)c1NS(C)(=O)=O (stereo not drawn) |  |
| 9.15 | CC1CCN(c2nc(C(F)(F)F)ccc2CNC(=O)C(C)c2cc(F)c(NS(C)(=O)=O)c(Br)c2)CC1 (stereo not drawn) |  |
| 9.52 | COc1cc(C(C)C(=O)NCc2ccc(C(F)(F)F)nc2N2CCC(C)CC2)cc(F)c1NS(C)(=O)=O (stereo not drawn) |  |
